Test results published in patent US10406111B2, “Gold/lanthanide nanoparticle conjugates and uses thereof” (COLORADO SCHOOL OF MINES, priority 2009, dated 2019).

Test: In vitro MRI relaxation properties (relaxivity)
Excerpt: In vitro MRI of GdNPs and Polymer Modified Gd NPs. In order to provide information about the clinical imaging viability of the polymer modified gold/Gd nanoparticles, as a positive contrast agent, in vitro MRI was employed to determine relaxation properties of the unmodified and polymer modified gold/Gd nanoparticles. Table 1 compares the MRI longitudinal and transverse relaxivities, r1 and r2, respectively, of PNIPAM-modified gold/Gd nanoparticles and gold/Gd unmodified nanoparticles to the clinically employed contrasts agents, gadopentetate dimeglumine (Magnevist®) and gadobenate dimeglumine (Multihance®). […] By taking advantage of these properties, novel theragnostic polymer-modified gold/Gd nanoparticles could be produced and exploited as contrast agents for conventional T1 MR imaging.

Row | Compound | r1 (MRI longitudinal relaxivity) [mM⁻¹ s⁻¹]
1 | CNC[C@H](O)[C@@H](O)[C@H](O)[C@H](O)CO.CNC[C@H](O)[C@@H](O)[C@H](O)[C@H](O)CO.O=C([O-])CN(CCN(CC(=O)[O-])CC(=O)O)CCN(CC(=O)[O-])CC(=O)O.[Gd+3] [Magnevist ®, gadopentetate dimeglumine] | 6.95
2 | CNC[C@H](O)[C@@H](O)[C@H](O)[C@H](O)CO.CNC[C@H](O)[C@@H](O)[C@H](O)[C@H](O)CO.O=C([O-])CN(CCN(CC(=O)[O-])CC(=O)O)CCN(CC(=O)O)C(COCc1ccccc1)C(=O)[O-].[Gd+3] (centres unmarked) [Multihance ®, gadobenate dimeglumine] | 17.7
